The text below walks through data of US9072753B1, “Gargle method to reduce the duration of common cold symptoms” (priority 2001, dated 2015).

Entries after “also recorded” stand apart in the source; their conditions may differ. Like-named read-outs stand apart in the source and are kept apart here.

The subject of data set [1] is common cold. In words: Case examples, nonalcoholic mouthwash remedies in subjects with a cold. Format: in vivo, human. To be noted: single subject per example; 15 ml mouthwash three times a day for at least two days. The protocol: In order to facilitate a more complete understanding of the invention, a number of Examples are provided below. However, the scope of the invention is not limited to specific embodiments disclosed in these Examples, which are for purposes of illustration only. In each of the following Examples, the subjects were administered one tablespoon (15 ml) of remedy in a mouthwash formulation three times a day for at least two days comprising: […]

For the next data set, the system named is Rhinovirus 14. In words: Antiviral activity testing against rhinovirus (Rhinovirus 14 in KB cells). Format: cell-based. The settings on record: for Virus Inhibition: 4 values and above indicate excellent antiviral activity.
In data set [2] the test system is Influenza A/Hong Kong/68 (H3N2). In words: Antiviral activity testing against influenza virus in MDCK cells. The format is cell-based. To be noted: Influenza A/Hong Kong/68 (H3N2) in MDCK cells; for Virus Inhibition: 4 values and above indicate excellent antiviral activity. The text has this:
Results of antiviral invitro testing performed at baylor college of medicine department of molecular virology & microbiology.

Data set [3] relates to Madin Darby Canine Kidney (MDCK) cells. The data set is described as follows: Toxicity of materials in the influenza test (MDCK cells). The format is cell-based. The settings on record: Table 2.
The conditions of data set [4]: healthy HIV-negative humans; cited from earlier work.
In the next data set the test system is myxoviruses. The settings on record: cited from earlier work.
Another data set has as its system cells in tissue culture. To be noted: high concentrations; cited from earlier work.
The conditions of data set [5]: in vivo; cited from earlier work.
For data set [6], the system named is broad spectrum of viruses. To be noted: cited from earlier work.
Data set [7] concerns RNA-dependent DNA polymerases (reverse transcriptases) of both Moloney and Rauscher leukemia viruses. To be noted: cited from earlier work.
The subject of data set [8] is common cold. The settings on record: after seven days; 37 zinc-treated subjects; cited from earlier work.

Take `O=C1O[C@H]([C@@H](O)CO)C(O)=C1O` [Ascorbic Acid]: in the data set on common cold [1], the “Recovery from the cold” value is listed as “within one day; also recorded: within two days”. Further, the “Virus Inhibition” value with Rhinovirus 14 was 4.
As to `O=C([O-])O.[Na+]` [Baking Soda], the Toxicity turned out to be 2 in the data set with KB cells and 0 in data set [3]. For the same compound, in the data set on common cold [1], the “Recovery from the cold” value was “within one day; also recorded: within two days; also recorded: within three days”. Further, the “Selective Inhibition” value in [2] was determined as 4; in the data set on Rhinovirus 14 it was 2. Further, the “Virus Inhibition” value in data set [2] amounted to 2; in the data set with Rhinovirus 14, 4.
For `CCCc1cc(=O)oc2c3c(c4c(c12)OC(C)(C)C=C4)O[C@H](C)[C@@H](C)[C@@H]3O` [Calanolide A], the Safety and tolerability entry in [4] is “safe and well tolerated”.
In the case of `O=C(O)CC(O)(CC(=O)O)C(=O)O` [Citric Acid], the Toxicity (with KB cells (human); in data set [3]) was 6 in each case. In the data set with common cold [1], the “Recovery from the cold” value was “within three days; also recorded: within one day; also recorded: within four days; also recorded: within two days; also recorded: within ten days; also recorded: within five days”. Besides, the “Virus Inhibition” value (in data set [2]; in the data set with Rhinovirus 14) was 6 throughout.
Consider `OO` [Hydrogen Peroxide], for which the Toxicity with KB cells (human) came out at 7; in data set [3], 6. In addition, the figures for the “Virus Inhibition” value (in data set [2]; in the data set on Rhinovirus 14) were 6 and 7, respectively.
On to `O=C(O)CC(O)C(=O)O` (centres unmarked) [Malic Acid], for which the Toxicity (in the data set on KB cells (human); in [3]) was 6 throughout. For the same compound, the “Virus Inhibition” value (in data set [2]; in the data set with Rhinovirus 14) was 6 in each case.
Regarding `COC(=O)C1=CO[C@@H](C)[C@@H](C=O)[C@@H]1CC(=O)[O-].COC(=O)C1=CO[C@@H](C)[C@@H](C=O)[C@@H]1CC(=O)[O-].[Ca+2]` [calcium elenolate], in the data set on myxoviruses, the Inactivation of myxoviruses entry was “inactivates all myxoviruses so far tested”. Besides, the “Toxicity to cells in tissue culture” value in the data set on cells in tissue culture is recorded as “relatively nontoxic”. Further, the Tolerability in animals entry in data set [5] is recorded as “well tolerated”. Also, the “Virucidal activity in vitro” value in data set [6] was “virucidal for a broad spectrum of viruses in vitro”. In data set [7], the “Inhibition of reverse transcriptases” value is “inhibits”.
As to zinc, the Subjects asymptomatic in the data set with common cold [8] is 86%.
